Data: EP4603105A1, “PHARMACEUTICAL COMPOSITION CONTAINING CYCLIC COMPOUND HAVING SELECTIVE KRAS INHIBITORY EFFECT AGAINST HRAS AND NRAS” (CHUGAI SEIYAKU KABUSHIKI KAISHA, priority 2022, dated 2024)
*1 amine or outer side, *2 acyl side, *3 side chain or, on linkers, in order; H or OH if unused. Where a SMILES comes first, the peptide text is derived from it. Bridges are numbered along the chain shown (N, C = ends). [ ]: non-standard residue; d: D form. The star is where a group is joined. hPhe(3-Cl-4-CF3) = N[C@@H](CCc1ccc(C(F)(F)F)c(Cl)c1)C(=O)O; NPrPhe(4-CF3) = CCCN[C@@H](Cc1ccc(C(F)(F)F)cc1)C(=O)O; NPrAsp = CCCN([C@@H](CC(=O)[*:3])C(=O)[*:2])[*:1]; NMeGly(cPent) = CN[C@H](C(=O)O)C1CCCC1; NMeNva = CCC[C@H](NC)C(=O)O; Morpholide = C1CN(*)CCO1; Ac4c = NC1(C(=O)O)CCC1; Sar = CNCC(=O)O

Assays:
HRAS wild-type protein = HRAS wild-type protein (Homo sapiens, UniProt P01112); assay: Binding to HRAS by surface plasmon resonance (SPR), KD and KD ratio to KRAS
Outline: (§1)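 Recombinant RAS proteins bearing a biotinylated Avi tag and loaded with GDP served as the captured ligand, recaptured fresh every cycle. Binding responses were referenced to an uncoated surface and a buffer-only blank cycle. Dissociation constants were obtained by 1:1 model fitting at 30°C.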

[1] = system: human lung cancer strain NCI-H441; assay type: cell-based
Outline: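 Signal came from […] measured per well once the reagent was added. Beforehand, cells were cultured at 37°C and 5% carbon dioxide on a compound series serially diluted in dimethyl sulfoxide.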

[2] = biological target: GDP-bound NRAS wild-type protein (Homo sapiens, UniProt P01111); assay: Binding to NRAS by surface plasmon resonance (SPR), KD and KD ratio to KRAS
Outline: as §1

[3] = ratio of KD value for HRAS wild-type protein to KD value for KRAS (SPR)
[4] = ratio of KD value for GDP-bound NRAS wild-type protein to KD value for KRAS (SPR)
[5] = ratio of KD for HRAS wild-type protein to KD for KRAS
[6] = ratio of KD for GDP-bound NRAS wild-type protein to KD for KRAS
[7] = ratio of the KD value with respect to HRAS wild-type protein to the KD value with respect to KRAS
[8] = ratio of the KD value with respect to GDP-bound NRAS wild-type protein to the KD value with respect to KRAS

Sequence of GDP-bound NRAS wild-type protein (P01111 whole entry): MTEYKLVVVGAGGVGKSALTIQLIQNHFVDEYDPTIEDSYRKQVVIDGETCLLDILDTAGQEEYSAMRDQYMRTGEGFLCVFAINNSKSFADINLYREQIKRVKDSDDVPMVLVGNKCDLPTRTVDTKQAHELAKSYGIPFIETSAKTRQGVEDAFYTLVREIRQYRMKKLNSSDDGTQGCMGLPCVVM
Sequence of HRAS wild-type protein (P01112 whole entry): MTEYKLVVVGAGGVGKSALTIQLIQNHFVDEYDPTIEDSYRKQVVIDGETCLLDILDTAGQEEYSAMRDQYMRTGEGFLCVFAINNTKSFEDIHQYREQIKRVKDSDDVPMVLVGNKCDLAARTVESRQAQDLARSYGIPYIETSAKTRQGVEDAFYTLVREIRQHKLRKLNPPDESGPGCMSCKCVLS

SMILES | HRAS /KRAS (HRAS wild-type protein; [3]) | IC50 [1] [µM] | NRAS /KRAS [2, 4] | HRAS /KRAS (HRAS wild-type protein; [5]) | NRAS /KRAS [2, 6] | HRAS /KRAS (HRAS wild-type protein; [7]) | NRAS /KRAS [2, 8]
CCC[C@H]1C(=O)N[C@@H]([C@@H](C)CC)C(=O)N(C)CC(=O)N(C)[C@H]2C/C=C\CCN(C2=O)[C@@H](Cc2ccc(C(F)(F)F)cc2)C(=O)N(C)CC(=O)N[C@@H](CCc2cc(F)c(C(F)(F)F)c(F)c2)C(=O)N2CC(F)(F)C[C@H]2C(=O)NC2(CC(C)(C)C2)C(=O)N(C)[C@@H](C2CCCC2)C(=O)N(C)[C@H](C(=O)N(C)C)CC(=O)N1C [PP1711] | B (a compound having 3 or more and less than 10 is denoted as B) | 0.005 | A (a compound having 10 or more and less than 20 is denoted as A) |  |  |  | 
CC[C@H](C)[C@@H]1NC(=O)[C@H](CC(C)C)N(C)C(=O)C[C@@H](C(=O)N(C)C)N(C)C(=O)[C@H](C2CCCC2)N(C)C(=O)C2(CCC2)NC(=O)[C@@H]2C[C@@H](C)CN2C(=O)[C@H](CCc2ccc(C(F)(F)F)c(Cl)c2)NC(=O)CN(C)C(=O)[C@H](Cc2ccc(C)cc2)N2CC/C=C\C[C@@H](C2=O)N(C)C(=O)CN(C)C1=O [PP1854] | A (a compound having 10 or more and less than 20 is denoted as A) | 0.0052 | A (a compound having 10 or more and less than 20 is denoted as A) |  |  |  | 
CCC[C@H]1C(=O)N[C@@H]([C@@H](C)CC)C(=O)N(C)CC(=O)N(C)[C@H]2C/C=C\CCN(C2=O)[C@@H](Cc2ccc(C)cc2)C(=O)N(C)CC(=O)N[C@@H](CCc2ccc(C(F)(F)F)c(OC)c2)C(=O)N2C[C@H](OCC)C[C@H]2C(=O)NC2(CCC2)C(=O)N(C)[C@@H](C2CCCC2)C(=O)N(C)[C@H](C(=O)N(C)C)CC(=O)N1C [PP1871] | A (a compound having 10 or more and less than 20 is denoted as A) | 0.0131 | A (a compound having 10 or more and less than 20 is denoted as A) |  |  |  | 
CCO[C@@H]1C[C@H]2C(=O)NC3(CCC3)C(=O)N(C)[C@@H](C3CCCC3)C(=O)N(C)[C@H](C(=O)N(C)C)CC(=O)N(C)[C@@H](CC3CCCC3)C(=O)N[C@@H]([C@@H](C)CC)C(=O)N(C)CC(=O)N(C)[C@H]3C/C=C\CCN(C3=O)[C@@H](Cc3ccc(C)cc3)C(=O)N(C)CC(=O)N[C@@H](CCc3cc(C)c(C(F)F)c(Cl)c3)C(=O)N2C1 [PP2677] |  | 0.0706 |  | A (a compound having 10 or more and less than 20 is denoted as A) | A (a compound having 10 or more and less than 20 is denoted as A) |  | 
CCC[C@H]1C(=O)N[C@@H]([C@@H](C)CC)C(=O)N(C2CC2)CC(=O)N(C)[C@H]2C/C=C\CCN(C2=O)[C@@H](Cc2ccc(C)cc2)C(=O)N(C)CC(=O)N[C@@H](CCc2ccc(C(F)(F)F)c(OC)c2)C(=O)N2C[C@H](OCC)C[C@H]2C(=O)N(C)C2(CCC2)C(=O)N(C)[C@@H](C2CCCC2)C(=O)N(C)[C@H](C(=O)N(C)C)CC(=O)N1C [PP2328] |  | 0.0022 |  |  |  | A (a compound having 10 or more and less than 20 is denoted as A) | A (a compound having 10 or more and less than 20 is denoted as A)
CCO[C@@H]1C[C@H]2C(=O)NC3(CCC3)C(=O)N(C)[C@@H](C3CCCC3)C(=O)N(C)[C@H](C(=O)N(C)C)CC(=O)N(C)[C@@H](C)C(=O)N[C@@H]([C@@H](C)CC)C(=O)N(C)CC(=O)N(C)[C@H]3C/C=C\CCN(C3=O)[C@@H](Cc3ccc(C(F)(F)F)cc3)C(=O)N(C)CC(=O)N[C@@H](CCc3cc(F)c(C(F)(F)F)c(F)c3)C(=O)N2C1 [PP1108] |  | 0.0283 |  | A (a compound having 10 or more and less than 20 is denoted as A) | A (a compound having 10 or more and less than 20 is denoted as A) |  | 
CCC[C@H]1C(=O)N[C@@H](C2CCOCC2)C(=O)N(C)CC(=O)N(C)[C@H]2C/C=C\CCN(C2=O)[C@@H](Cc2ccc(C(F)(F)F)cc2)C(=O)N(C)CC(=O)N[C@@H](CCc2ccc(C(F)(F)F)c(Cl)c2)C(=O)N2C[C@H](OCC)C[C@H]2C(=O)NC2(CC(C)(C)C2)C(=O)N(C)[C@@H](CC(C)(C)C)C(=O)N(C)[C@H](C(=O)N(C)C)CC(=O)N1C [PP3022] |  | 0.0514 |  | A (a compound having 10 or more and less than 20 is denoted as A) | AA (a compound having 20 or more is denoted as AA) |  | 
CCC[C@H]1C(=O)N[C@@H]([C@@H](C)CC)C(=O)N(C)CC(=O)N(C)[C@H]2C/C=C\CCN(C2=O)[C@@H](Cc2ccc(C(F)(F)F)cc2)C(=O)N(C)CC(=O)N[C@@H](CCc2cc(F)c(Cl)c(F)c2)C(=O)N2C[C@H](OCC)C[C@H]2C(=O)NC2(CC(C)(C)C2)C(=O)N(C)[C@@H](C2CCCC2)C(=O)N(C)[C@H](C(=O)N(C)C)CC(=O)N1C [PP1758] | A (a compound having 10 or more and less than 20 is denoted as A) | 0.006 | AA (a compound having 20 or more is denoted as AA) |  |  |  | 
CC[C@H](C)[C@@H]1NC(=O)[C@H](CC(C)C)N(C)C(=O)C[C@@H](C(=O)N2CCOCC2)N(C)C(=O)[C@H](C2CCCC2)N(C)C(=O)C2(CCC2)NC(=O)[C@@H]2CCCN2C(=O)[C@H](CCc2ccc(C(F)(F)F)c(Cl)c2)NC(=O)CN(C)C(=O)[C@H](Cc2ccc(F)cc2)N2CCCCC[C@@H](C2=O)N(C)C(=O)CN(C)C1=O [PP0967] |  | 0.0777 |  | B (a compound having 3 or more and less than 10 is denoted as B) | B (a compound having 3 or more and less than 10 is denoted as B) |  | 
C#CC[C@H]1C(=O)N[C@@H]([C@@H](C)CC)C(=O)N(C)CC(=O)N(C)[C@H]2C/C=C\CCN(C2=O)[C@@H](Cc2ccc(C(F)(F)F)cc2)C(=O)N(C)CC(=O)N[C@@H](CCc2cc(F)c(C(F)(F)F)c(F)c2)C(=O)N2C[C@H](OCC)C[C@H]2C(=O)NC2(CCC2)C(=O)N(C)[C@@H](C2CCCC2)C(=O)N(C)[C@H](C(=O)N(C)C)CC(=O)N1C [PP1115] |  | 0.029 |  | A (a compound having 10 or more and less than 20 is denoted as A) | A (a compound having 10 or more and less than 20 is denoted as A) |  | 
CCC[C@H]1C(=O)N[C@@H]([C@@H](C)CC)C(=O)N(C)CC(=O)N(C)CC(=O)N(CCC)[C@@H](Cc2ccc(C(F)(F)F)cc2)C(=O)N(C)CC(=O)N[C@@H](CCc2ccc(C(F)(F)F)c(Cl)c2)C(=O)N2CCC[C@H]2C(=O)NC2(CCC2)C(=O)N(C)[C@@H](C2CCCC2)C(=O)N(CCC)[C@H](C(=O)N2CCOCC2)CC(=O)N1C [PP1954] ([NMeNva]I[Sar][Sar][NPrPhe(4-CF3)][Sar][hPhe(3-Cl-4-CF3)]P[Ac4c][NMeGly(cPent)][NPrAsp]-Morpholide; lactam N-11) |  | 0.0081 |  |  |  | B (a compound having 3 or more and less than 10 is denoted as B) | B (a compound having 3 or more and less than 10 is denoted as B)
CC[C@H](C)[C@@H]1NC(=O)[C@H](CC(C)C)N(C)C(=O)C[C@@H](C(=O)N2CCOCC2)N(C)C(=O)[C@H](C2CCCC2)N(C)C(=O)C2(CCC2)NC(=O)[C@@H]2C[C@@H](C(F)(F)F)CN2C(=O)[C@H](CCc2cc(F)c(C(F)(F)F)c(F)c2)NC(=O)CN(C)C(=O)[C@H](Cc2ccc(C(F)(F)F)cc2)N2CCCCC[C@@H](C2=O)N(C)C(=O)CN(C)C1=O [PP0818] |  | 0.0437 |  | B (a compound having 3 or more and less than 10 is denoted as B) | B (a compound having 3 or more and less than 10 is denoted as B) |  | 
CCO[C@@H]1C[C@H]2C(=O)NC3(CC(C)(C)C3)C(=O)N(C)[C@@H](C3CCCC3)C(=O)N(C)[C@H](C(=O)N(C)C)CC(=O)N(C)[C@@H](CC(F)(F)F)C(=O)N[C@@H]([C@@H](C)CC)C(=O)N(C)CC(=O)N(C)[C@H]3C/C=C\CCN(C3=O)[C@@H](Cc3ccc(C(F)(F)F)cc3)C(=O)N(C)CC(=O)N[C@@H](CCc3ccc(C(F)(F)F)c(Cl)c3)C(=O)N2C1 [PP2833] |  | 0.0038 |  | A (a compound having 10 or more and less than 20 is denoted as A) | A (a compound having 10 or more and less than 20 is denoted as A) |  | 
CCC[C@H]1C(=O)N[C@@H]([C@@H](C)CC)C(=O)N(C2CC2)CC(=O)N(C)[C@H]2C/C=C\CCN(C2=O)[C@@H](Cc2ccc(C)cc2)C(=O)N(C)CC(=O)N[C@@H](CCc2cc(F)c(C(F)(F)F)c(F)c2)C(=O)N2C[C@H](OCC)C[C@H]2C(=O)N(C)C2(CCC2)C(=O)N(C)[C@@H](C2CCCC2)C(=O)N(C)[C@H](C(=O)N2CCCC2)CC(=O)N1C [PP3113] |  | 0.0061 |  | A (a compound having 10 or more and less than 20 is denoted as A) | A (a compound having 10 or more and less than 20 is denoted as A) |  | 
CCC[C@H]1C(=O)N[C@@H]([C@@H](C)CC)C(=O)N2CCC[C@H]2C(=O)N(C)[C@H]2C/C=C\CCN(C2=O)[C@@H](Cc2ccc(C)cc2)C(=O)N(C)CC(=O)N[C@@H](CCc2cc(F)c(C(F)(F)F)c(F)c2)C(=O)N2C[C@H](OCC)C[C@H]2C(=O)N(C)C2(CCC2)C(=O)N(C)[C@@H](C2CCCC2)C(=O)N(C)[C@H](C(=O)N2CCCC2)CC(=O)N1C [PP3117] |  | 0.0026 |  | A (a compound having 10 or more and less than 20 is denoted as A) | A (a compound having 10 or more and less than 20 is denoted as A) |  | 
CCO[C@@H]1C[C@H]2C(=O)NC3(CCC3)C(=O)N(C)[C@@H](C3CCCC3)C(=O)N(C)[C@H](C(=O)N(C)C)CC(=O)N(C)[C@@H](CC)C(=O)N[C@@H]([C@@H](C)CC)C(=O)N(C)CC(=O)N(C)[C@H]3CC(C)=CCN(C3=O)[C@@H](Cc3ccc(C(F)(F)F)cc3)C(=O)N(C)CC(=O)N[C@@H](CCc3cc(F)c(C(F)(F)F)c(F)c3)C(=O)N2C1 [PP1034] |  | 0.0968 |  | C (A compound having a KD ratio of 0.1 or more and less than 3 is denoted as C) | C (A compound having a KD ratio of 0.1 or more and less than 3 is denoted as C) |  | 
